Where two headings read alike, the source gives them in different places.
Columns and labels:
Format in all cases: cell-based
TRPML1 = TRPML1 (Homo sapiens, UniProt Q9GZU1); test: Fluorescent TRPML1 assay (Fluo4-AM calcium fluorescence in doxycycline-induced HEK-293 Trex cells)
Summary of the method: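 HEK-293 Trex cells stably carrying human TRPML1 (surface-trafficking mutant) were induced overnight with 0.5 ug/mL doxycycline, loaded with 1 micromolar Fluo4-AM, and suspended in Ringer's with 10 mM calcium. Compounds at 20 micromolar to 6 nanomolar final, half-log steps, triplicate; fluorescence 480/540 nm gave percent activity versus controls and EC50 by non-linear regression.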

TRPML2 = molecular target: T1, TRPML2 (Homo sapiens, UniProt Q8IZK6); test: Fluorescent TRPML2 assay (performed as for TRPML1, substituting the TRPML2 subtype)
T1 construct: expressed in transfected cells
T1 sequence (Q8IZK6 1-566): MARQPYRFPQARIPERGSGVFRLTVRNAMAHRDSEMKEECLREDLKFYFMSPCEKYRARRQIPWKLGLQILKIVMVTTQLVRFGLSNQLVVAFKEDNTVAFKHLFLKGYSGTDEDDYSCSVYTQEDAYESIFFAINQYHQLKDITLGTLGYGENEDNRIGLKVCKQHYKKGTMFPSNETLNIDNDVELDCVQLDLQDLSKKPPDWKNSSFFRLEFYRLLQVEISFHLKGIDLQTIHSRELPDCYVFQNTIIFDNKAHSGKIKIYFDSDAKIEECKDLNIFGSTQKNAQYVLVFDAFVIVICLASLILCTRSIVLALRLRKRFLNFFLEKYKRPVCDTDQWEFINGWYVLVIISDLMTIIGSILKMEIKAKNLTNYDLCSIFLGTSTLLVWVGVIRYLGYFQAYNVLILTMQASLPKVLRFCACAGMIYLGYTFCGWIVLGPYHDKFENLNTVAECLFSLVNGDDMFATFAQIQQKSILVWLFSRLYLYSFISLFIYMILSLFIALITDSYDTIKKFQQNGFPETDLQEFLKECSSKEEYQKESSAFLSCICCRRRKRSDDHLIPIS
Summary of the method: (§1)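 Agonist activity is scored as percent of plate controls from Fluo4 fluorescence after dye-loaded, doxycycline-induced HEK-293 Trex cells meet compound in high-calcium (10 mM) Ringer's. Compounds run in half-log dilutions from 20 micromolar final, in triplicate.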

TRPML3 = molecular target: T2, TRPML3 (Homo sapiens, UniProt Q8TDD5); test: Fluorescent TRPML3 assay (performed as for TRPML1, substituting the TRPML3 subtype)
T2 construct: expressed in transfected cells
T2 sequence (Q8TDD5 1-553): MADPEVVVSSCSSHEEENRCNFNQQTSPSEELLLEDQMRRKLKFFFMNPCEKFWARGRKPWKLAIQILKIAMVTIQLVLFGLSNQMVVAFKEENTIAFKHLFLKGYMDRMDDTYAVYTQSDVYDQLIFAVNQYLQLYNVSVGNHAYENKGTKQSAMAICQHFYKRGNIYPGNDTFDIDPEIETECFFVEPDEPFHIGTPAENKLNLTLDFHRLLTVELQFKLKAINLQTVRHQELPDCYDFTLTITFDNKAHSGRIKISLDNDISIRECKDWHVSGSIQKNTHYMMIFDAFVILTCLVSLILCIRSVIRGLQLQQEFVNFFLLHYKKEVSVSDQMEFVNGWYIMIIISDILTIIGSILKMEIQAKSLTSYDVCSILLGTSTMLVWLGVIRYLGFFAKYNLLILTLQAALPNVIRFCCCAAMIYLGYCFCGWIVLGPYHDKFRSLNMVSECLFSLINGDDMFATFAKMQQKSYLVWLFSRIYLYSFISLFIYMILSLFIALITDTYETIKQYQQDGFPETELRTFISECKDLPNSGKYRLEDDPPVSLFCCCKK
Summary of the method: as §1

Sequence of TRPML1 (Q9GZU1 whole entry L15A/L16A/L577A/L578A, form open): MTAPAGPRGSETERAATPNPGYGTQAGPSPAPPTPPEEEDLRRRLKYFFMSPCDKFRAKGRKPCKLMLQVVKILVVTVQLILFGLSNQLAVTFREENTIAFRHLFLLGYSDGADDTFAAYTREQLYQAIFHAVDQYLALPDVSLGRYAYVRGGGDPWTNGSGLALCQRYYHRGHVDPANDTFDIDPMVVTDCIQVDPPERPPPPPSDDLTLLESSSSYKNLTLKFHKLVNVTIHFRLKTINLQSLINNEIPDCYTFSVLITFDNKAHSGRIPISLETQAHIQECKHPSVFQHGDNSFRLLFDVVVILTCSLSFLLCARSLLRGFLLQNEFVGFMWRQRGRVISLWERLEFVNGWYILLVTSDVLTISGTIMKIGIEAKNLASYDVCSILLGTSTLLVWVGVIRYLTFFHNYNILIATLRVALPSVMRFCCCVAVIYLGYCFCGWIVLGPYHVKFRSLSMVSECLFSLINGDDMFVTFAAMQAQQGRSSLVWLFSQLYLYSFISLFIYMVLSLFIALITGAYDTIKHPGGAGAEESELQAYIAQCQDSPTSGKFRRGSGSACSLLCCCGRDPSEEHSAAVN

EC50 (TRPML1; fluorescent calcium assay) [nM]	EC50 (TRPML2; fluorescent calcium assay) [nM]	EC50 (TRPML3; fluorescent calcium assay) [nM]	EC50 (TRPML1) [nM]	EC50 (TRPML2) [nM]	EC50 (TRPML3) [nM]	SMILES
< 100	< 100	< 100				CCCOc1cn(-c2cc(C#N)ccn2)c2ncnc(N3CCN(C(=O)OC(C)(C)C)C[C@@H]3C)c12 [Compound 487, tert-butyl (S)-4-(7-(4-cyanopyridin-2-yl)-5-propoxy-7H-pyrrolo[2,3-d]pyrimidin-4-yl)-3-methylpiperazine-1-carboxylate]
< 100	< 100	< 100				C[C@@H]1CN(c2ncnc3c2c(N2CCC2)cn3-c2cc(C#N)ccn2)[C@@H](C)CN1C(=O)OC(C)(C)C [Compound 489, tert-butyl (2R,5S)-4-(5-(azetidin-1-yl)-7-(4-cyanopyridin-2-yl)-7H-pyrrolo[2,3-d]pyrimidin-4-yl)-2,5-dimethylpiperazine-1-carboxylate]
< 100	< 100	< 100				C[C@@H]1CN(c2ncnc3c2c(N2CCC2)cn3-c2cccc(Cl)c2)[C@@H](C)CN1C(=O)OC(C)(C)C [Compound 490, tert-butyl (2R,5S)-4-(5-(azetidin-1-yl)-7-(3-chlorophenyl)-7H-pyrrolo[2,3-d]pyrimidin-4-yl)-2,5-dimethylpiperazine-1-carboxylate]
< 100	100 to 500	< 100				C[C@@H]1CN(c2ncnc3c2c(C(F)(F)F)cn3-c2cccc(Cl)c2)[C@@H](C)CN1C(=O)OC(C)(C)C [Compound 491, tert-Butyl (2R,5S)-4-(7-(3-chlorophenyl)-5-(trifluoromethyl)-7H-pyrrolo[2,3-d]pyrimidin-4-yl)-2,5-dimethylpiperazine-1-carboxylate]
< 100	100 to 500	< 100				C[C@@H]1CN(c2ncnc3c2c(C(F)(F)F)cn3-c2cc(F)cc(F)c2)[C@@H](C)CN1C(=O)OC(C)(C)C [Compound 492]
< 100	< 100	< 100				C[C@H]1CN(C(=O)OC(C)(C)C)CCN1c1ncnc2c1c(N1CCC1)cn2-c1cccc(Cl)c1 [Compound 493, tert-butyl (S)-4-(5-(azetidin-1-yl)-7-(3-chlorophenyl)-7H-pyrrolo[2,3-d]pyrimidin-4-yl)-3-methylpiperazine-1-carboxylate]
			< 100	100 to 500	< 100	C[C@H]1CN(C(=O)OC(C)(C)C)CCN1c1ncnc2c1c(C(F)(F)F)cn2-c1cccc(Cl)c1 [Compound 494, tert-butyl (S)-4-(7-(3-chlorophenyl)-5-(trifluoromethyl)-7H-pyrrolo[2,3-d]pyrimidin-4-yl)-3-methylpiperazine-1-carboxylate]
			< 100	100 to 500	< 100	C[C@H]1CN(C(=O)OC(C)(C)C)CCN1c1ncnc2c1c(C(F)(F)F)cn2-c1cc(F)cc(F)c1 [Compound 495]
			< 100	100 to 500	< 100	C[C@@H]1CN(c2ncnc3c2c(C(F)(F)F)cn3-c2cccc(F)c2)[C@@H](C)CN1C(=O)OC(C)(C)C [Compound 496, tert-butyl (2R,5S)-4-(7-(3-fluorophenyl)-5-(trifluoromethyl)-7H-pyrrolo[2,3-d]pyrimidin-4-yl)-2,5-dimethylpiperazine-1-carboxylate]
			< 100	< 100	< 100	C[C@@H]1CN(c2ncnc3c2c(N2CCC2)cn3-c2cc(F)cc(F)c2)[C@@H](C)CN1C(=O)OC(C)(C)C [Compound 497, tert-butyl (2R,5S)-4-(5-(azetidin-1-yl)-7-(3,5-difluorophenyl)-7H-pyrrolo[2,3-d]pyrimidin-4-yl)-2,5-dimethylpiperazine-1-carboxylate]
			< 100	< 100	< 100	C[C@H]1CN(C(=O)OC(C)(C)C)CCN1c1ncnc2c1c(N1CCC1)cn2-c1cc(F)cc(F)c1 [Compound 498, tert-butyl (S)-4-(5-(azetidin-1-yl)-7-(3,5-difluorophenyl)-7H-pyrrolo[2,3-d]pyrimidin-4-yl)-3-methylpiperazine-1-carboxylate]
			< 100	100 to 500	< 100	CCCN(C)c1cn(-c2cc(C#N)ccn2)c2ncnc(N3C[C@@H](C)N(C(=O)OC(C)(C)C)C[C@@H]3C)c12 [Compound 499, tert-butyl (2R,5S)-4-(7-(4-cyanopyridin-2-yl)-5-(methyl(propyl)amino)-7H-pyrrolo[2,3-d]pyrimidin-4-yl)-2,5-dimethylpiperazine-1-carboxylate]
			100 to 500	500 to 2000	100 to 500	C=CCOC(=O)N(CCC)c1cn(-c2cc(Cl)ccn2)c2ncnc(N3C[C@@H](C)N(C(=O)OC(C)(C)C)C[C@@H]3C)c12 [Compound 500, tert-butyl (2R,5S)-4-(5-(((allyloxy)carbonyl)(propyl)amino)-7-(4-chloropyridin-2-yl)-7H-pyrrolo[2,3-d]pyrimidin-4-yl)-2,5-dimethylpiperazine-1-carboxylate]
			< 100	100 to 500	< 100	C[C@H]1CN(c2ncnc3c2c(C(F)(F)F)cn3-c2cc(C#N)ccn2)[C@@H](C)CN1C(=O)OC(C)(C)C [Compound 502, tert-butyl (25,5S)-4-(7-(4-cyanopyridin-2-yl)-5-(trifluoromethyl)-7H-pyrrolo[2,3-d]pyrimidin-4-yl)-2,5-dimethylpiperazine-1-carboxylate]
			< 100	> 2000	100 to 500	C[C@@H]1CN(c2ncnc3c2c(C(F)(F)F)cn3-c2cc(C#N)ccn2)[C@H](C)CN1C(=O)OC(C)(C)C [Compound 503, tert-butyl (2R,5R)-4-(7-(4-cyanopyridin-2-yl)-5-(trifluoromethyl)-7H-pyrrolo[2,3-d]pyrimidin-4-yl)-2,5-dimethylpiperazine-1-carboxylate]
			< 100	100 to 500	< 100	C[C@@H]1CN(c2ncnc3c2c(N2CC4(COC4)C2)cn3-c2cc(C#N)ccn2)[C@@H](C)CN1C(=O)OC(C)(C)C [Compound 504, tert-butyl (2R,5S)-4-(7-(4-cyanopyridin-2-yl)-5-(2-oxa-6-azaspiro[3.3]heptan-6-yl)-7H-pyrrolo[2,3-d]pyrimidin-4-yl)-2,5-dimethylpiperazine-1-carboxylate]
			< 100	> 2000	< 100	C[C@@H]1CN(c2ncnc3c2c(C(F)(F)F)cn3-c2cc(F)ccn2)[C@@H](C)CN1C(=O)OC(C)(C)C [Compound 505, tert-butyl (2R,5S)-4-(7-(4-fluoropyridin-2-yl)-5-(trifluoromethyl)-7H-pyrrolo[2,3-d]pyrimidin-4-yl)-2,5-dimethylpiperazine-1-carboxylate]
			< 100	500 to 2000	< 100	C[C@@H]1CN(c2ncnc3c2c(C(F)(F)F)cn3-c2cc(Cl)ccn2)[C@@H](C)CN1C(=O)OC(C)(C)C [Compound 506, tert-butyl (2R,5S)-4-(7-(4-chloropyridin-2-yl)-5-(trifluoromethyl)-7H-pyrrolo[2,3-d]pyrimidin-4-yl)-2,5-dimethylpiperazine-1-carboxylate]
			< 100	< 100	< 100	CCCOc1cn(-c2cc(C#N)ccn2)c2ncnc(N3C[C@@H](C)N(C(=O)OC(C)(C)C)C[C@@H]3C)c12 [Compound 507, tert-butyl (2R,5S)-4-(7-(4-cyanopyridin-2-yl)-5-propoxy-7H-pyrrolo[2,3-d]pyrimidin-4-yl)-2,5-dimethylpiperazine-1-carboxylate]
			< 100	< 100	< 100	C[C@@H]1CN(c2ncnc3c2c(C(F)(F)F)cn3-c2cc(C#N)ncn2)[C@@H](C)CN1C(=O)OC(C)(C)C [Compound 509, tert-butyl (2R,5S)-4-(7-(6-cyanopyrimidin-4-yl)-5-(trifluoromethyl)-7H-pyrrolo[2,3-d]pyrimidin-4-yl)-2,5-dimethylpiperazine-1-carboxylate]

Reference: patent US20250136606A1, “MODULATORS OF TRPML, THEIR COMPOSITIONS AND METHODS OF USE” (Caraway Therapeutics, Inc., priority 2021, published 2025)
